Measured values as given in patent US20020081684A1, “Method and nucleotide sequence for transforming microorganisms” (priority 1995, published 2002).

Legend:
[1] = target: T1, L-malic acid carrier in S. pombe (Schizosaccharomyces pombe, UniProt P50537); details: Sousa et al. (1992); cited from earlier work
T1 construct: host or cells: S. pombe cells (per the assay title)
T1 sequence (P50537 1-438): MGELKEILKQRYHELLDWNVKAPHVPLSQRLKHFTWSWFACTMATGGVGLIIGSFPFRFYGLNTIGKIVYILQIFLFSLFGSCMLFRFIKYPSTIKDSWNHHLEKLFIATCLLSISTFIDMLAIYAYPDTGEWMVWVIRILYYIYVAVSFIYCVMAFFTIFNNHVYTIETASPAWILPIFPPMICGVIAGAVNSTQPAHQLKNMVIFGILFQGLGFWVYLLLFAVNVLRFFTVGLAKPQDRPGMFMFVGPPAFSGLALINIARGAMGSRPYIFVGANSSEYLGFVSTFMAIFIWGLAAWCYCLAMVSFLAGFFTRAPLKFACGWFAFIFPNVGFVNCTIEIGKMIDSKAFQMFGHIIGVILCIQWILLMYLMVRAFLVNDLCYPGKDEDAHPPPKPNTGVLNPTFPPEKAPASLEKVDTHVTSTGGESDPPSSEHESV

S. pombe Mae1 permease = target: T2, S. pombe Mae1 permease (Schizosaccharomyces pombe, UniProt P50537); assay: Transport assays for 14C-labelled L-malic, succinic, malonic and α-ketoglutaric acids in S. pombe wild-type, mae1- mutant and complemented mutant; type: cell-based; details: 14C-labelled acid, 0.1 M KCl pH 3.5, 30° C.
T2 construct: endogenous in cells; host or cells: S. pombe 972 leu1-32 h- (wild type); also the mae1- mutant complemented with the 3.4 kb SmaI genomic mae1 fragment in pRS315
T2 sequence (P50537 1-438): T1 sequence (P50537 1-438)
Protocol: Yeast cells in the logarithmic growth phase (OD of 1.2 at A595) were harvested and washed three times with 0.1 M KCI (pH 3.5). The cells were resuspended in 4 ml 0.1 M KCI (pH 3.5) and stored at 4° C. Transport assays were completed within 3 h. The cell suspensions were pre-incubated for 5 min in a shaker water bath at 30° C. at 100 rpm. Assays were initiated by adding 25 μl of ^14C-labelled L malate (45 μCi/μmol) (Amersham), 100 μl of succinic acid (42 μCi/μmol) (ICN), 100 μl malonic add (56.7 μCi/μmol) (Du Pont) or 100 μl a-ketoglutarate (51.8 μCi/μmol) (Du Pont). A 0.5-ml sample was withdrawn at 10, 20, 40, 60, and 120 sec intervals, rapidly filtered through 0.45 μm membranes (Mllipore Corporation, Bedford, Mass.), and immediately washed three times with 5 ml amounts of ice-cold 0.1 M KCI (pH 3.5). Filters containing the cells were oven-dried at 50° C. and placed in scintillation vials containing 5 ml of scintillation reaction mixture (Boehringer Mannheim, Mannheim, Germany). Pre-boiled (5 min) cells were used to determine non-specific binding of [^14C] malate, succinate, malonate and α-ketoglutarate to the yeast cells.

Row | SMILES | inhibition of initial uptake rates of L-malic acid [1] | transport in the mae1-mutant complemented with the 3.4kb Sma1 fragment containing the mae1 gene (S. pombe Mae1 permease)
1 | O=C(O)C[C@@H](O)C(=O)O [D-malic acid] | competitive inhibition | –
2 | O=C(O)/C=C/C(=O)O [fumaric acid] | competitive inhibition | –
3 | O=C(O)C[C@H](O)C(=O)O [L-malic acid] | – | fully restored
4 | O=C(O)CCC(=O)O [succinic acid] | competitive inhibition | fully restored
5 | O=C(O)CC(=O)O [malonic acid] | competitive inhibition | fully restored
6 | O=C(O)CC(=O)C(=O)O [oxaloacetic acid] | competitive inhibition | –
7 | O=C(O)/C=C\C(=O)O [maleic acid] | competitive inhibition | –
